ChEMBL document CHEMBL4828707, “Discovery of phenyl-linked symmetric small molecules as inhibitors of the programmed cell death-1/programmed cell death-ligand 1 interaction” (Eur J Med Chem, 2021)
pEC50, pIC50: −log10 of the molar value.

Assays:
[1] = target: T1, Programmed cell death protein 1/Programmed cell death 1 ligand 1 (Homo sapiens, UniProt Q9NZQ7); experiment: (§1) Inhibition of Tag2-PD1/Tag1-PD-L1 (unknown origin) protein-protein interaction preincubated for 15 mins followed by addition of anti-Tag1-Eu3+ and anti-Tag2-XL665 measured after 2 hrs in dark by HTRF assay; type: protein-complex assay
[2] = target: T2, Programmed cell death protein 1/Programmed cell death 1 ligand 1 (Homo sapiens, UniProt Q15116+Q9NZQ7); experiment: as §1; type: protein-complex assay
[3] = target: T1, Programmed cell death protein 1/Programmed cell death 1 ligand 1; experiment: Inhibition of PD1/PDL1 protein-protein interaction in human Jurkat cells overexpressing PD1 co-cultured with human Hep3B cells expressing PDL1 protein assessed as increase of TCR-mediated luminiscence measured after 6 hrs by NFAT reporter assay; type: cell-based
[4] = Cytotoxicity against human PBMC at 3 uM measured after 48 hrs by CCK8 assay
hERG (KCNH2) = hERG (KCNH2) (Homo sapiens, UniProt Q12809); experiment: Inhibition of human ERG expressed in HEK293 cells at 10 uM measured by whole cell patch-clamp assay; type: cell-based; conditions: HEK293 cells that express hERG
[5] = Cytotoxicity against human HPDE6c7 cells at 2 to 10 uM measured after 48 hrs by CCK8 assay; type: cell-based; conditions: hpde6c7, 48 h, dose 2-10 µM
L02 = experiment: Cytotoxicity against human HL7702 cells at 2 to 10 uM measured after 48 hrs by CCK8 assay; type: cell-based; conditions: l02, 48 h, dose 2-10 µM
[6] = target: T2, Programmed cell death protein 1/Programmed cell death 1 ligand 1; conditions: time 6.0 hrs

T1 sequence (Q15116 whole entry): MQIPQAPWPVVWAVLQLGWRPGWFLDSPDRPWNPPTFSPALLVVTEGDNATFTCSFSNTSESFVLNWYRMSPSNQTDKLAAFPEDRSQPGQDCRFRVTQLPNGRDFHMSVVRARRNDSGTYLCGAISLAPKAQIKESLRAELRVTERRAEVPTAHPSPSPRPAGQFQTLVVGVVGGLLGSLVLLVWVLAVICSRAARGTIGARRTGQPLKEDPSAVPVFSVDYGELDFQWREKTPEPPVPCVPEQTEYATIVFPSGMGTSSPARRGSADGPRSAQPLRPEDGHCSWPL
T1 sequence (Q9NZQ7 whole entry): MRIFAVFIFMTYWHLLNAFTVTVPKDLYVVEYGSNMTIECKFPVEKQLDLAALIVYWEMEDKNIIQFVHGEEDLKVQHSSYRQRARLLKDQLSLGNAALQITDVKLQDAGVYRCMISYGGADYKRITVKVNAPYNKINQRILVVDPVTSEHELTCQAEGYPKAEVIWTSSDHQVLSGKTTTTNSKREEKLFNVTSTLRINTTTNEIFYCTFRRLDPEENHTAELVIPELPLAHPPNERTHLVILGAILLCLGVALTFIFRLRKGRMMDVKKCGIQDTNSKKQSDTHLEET
T2 sequence (Q15116 whole entry): as the sequence (Q15116 whole entry) above
T2 sequence (Q9NZQ7 whole entry): as the sequence (Q9NZQ7 whole entry) above
Sequence of hERG (KCNH2) (Q12809 whole entry): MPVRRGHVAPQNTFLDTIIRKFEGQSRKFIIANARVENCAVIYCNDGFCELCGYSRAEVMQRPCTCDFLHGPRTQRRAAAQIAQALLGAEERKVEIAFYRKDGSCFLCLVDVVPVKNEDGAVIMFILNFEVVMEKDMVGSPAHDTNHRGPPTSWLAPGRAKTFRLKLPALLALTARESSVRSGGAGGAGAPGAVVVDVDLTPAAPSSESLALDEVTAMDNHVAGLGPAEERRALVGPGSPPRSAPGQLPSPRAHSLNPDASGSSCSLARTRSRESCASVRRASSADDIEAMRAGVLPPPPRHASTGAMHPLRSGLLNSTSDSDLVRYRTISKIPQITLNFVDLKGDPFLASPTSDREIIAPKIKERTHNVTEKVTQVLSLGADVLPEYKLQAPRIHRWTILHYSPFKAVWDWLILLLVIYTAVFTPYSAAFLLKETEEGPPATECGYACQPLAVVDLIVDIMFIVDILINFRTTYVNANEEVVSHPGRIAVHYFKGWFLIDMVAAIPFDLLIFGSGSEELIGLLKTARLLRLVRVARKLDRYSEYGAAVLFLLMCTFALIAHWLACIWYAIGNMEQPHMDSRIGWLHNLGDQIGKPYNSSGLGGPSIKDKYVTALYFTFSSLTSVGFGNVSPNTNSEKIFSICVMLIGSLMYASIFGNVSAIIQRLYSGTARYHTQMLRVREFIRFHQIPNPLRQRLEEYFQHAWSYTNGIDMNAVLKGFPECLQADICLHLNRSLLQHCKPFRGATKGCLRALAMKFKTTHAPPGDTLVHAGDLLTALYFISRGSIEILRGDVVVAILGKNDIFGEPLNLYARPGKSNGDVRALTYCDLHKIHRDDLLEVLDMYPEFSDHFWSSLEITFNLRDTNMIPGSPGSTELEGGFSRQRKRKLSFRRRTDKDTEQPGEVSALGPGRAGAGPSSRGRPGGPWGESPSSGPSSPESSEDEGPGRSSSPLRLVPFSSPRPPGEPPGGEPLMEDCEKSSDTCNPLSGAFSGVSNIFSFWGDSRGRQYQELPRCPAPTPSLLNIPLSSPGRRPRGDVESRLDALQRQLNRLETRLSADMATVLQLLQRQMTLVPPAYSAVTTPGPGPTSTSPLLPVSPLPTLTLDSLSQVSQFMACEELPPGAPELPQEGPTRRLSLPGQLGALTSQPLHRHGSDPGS

Row | Compound | pIC50 [1] | other results
1 | COc1cc(-c2cccc(-c3cccc(-c4ccc(CNC(CO)CO)c(OC)c4)c3C)c2C)ccc1CNC(CO)CO | < 6.00 | –
2 | O=C(c1ccc(CNCCO)cc1)N1CCCc2c(-c3ccc4c(c3)OCCO4)cccc21 | < 6.00 | –
3 | Cc1c(-c2ccc3c(c2)OCCO3)cccc1N1Cc2cc(CNCCO)ccc2C1=O | < 6.00 | –
4 | Cc1c(C(=O)Nc2ccc(CNCCO)cc2)cccc1-c1ccc2c(c1)OCCO2 | < 6.00 | –
5 | Cc1c(-c2ccc3c(c2)OC(=O)N(CC(=O)O)C3)cccc1-c1ccc2c(c1)OCCO2 | – | IC50 [2]: Not Active
6 | Cc1c(-c2ccc3c(c2)OCCO3)cccc1-c1nnc(-c2ccc(CNCCO)cc2)o1 | < 6.00 | –
7 | COc1cc(-c2cccc(-c3cccc(-c4ccc(CNCC(O)C(=O)O)c(OC)c4)c3C)c2C)ccc1CNCC(O)C(=O)O (stereo not drawn) | 8.40 | pEC50 [3]: 6.42; Activity [4]: Non-Toxic; inhibition at 10 µM (hERG (KCNH2)): 7.72%; Activity [5]: Non-Toxic; Activity (L02): Non-Toxic; RLU [6]: 27000
8 | Cc1c(-c2ccc3c(c2)NCC(=O)N(CCO)C3)cccc1-c1ccc2c(c1)OCCO2 | – | IC50 [2]: Not Active
9 | Cc1c(-c2ccc3c(c2)OCCO3)cccc1N1CCN(c2ncc(CNCCO)s2)C1=O | < 6.00 | –
10 | Cc1c(-c2ccc3c(c2)OCCO3)cccc1-c1ccc(CNCCO)o1 | 6.72 | –
11 | Cc1c(-c2ccc3c(c2)OCCO3)cccc1N1CCN(c2ccc(CNCCO)cn2)C1=O | < 6.00 | –
12 | COc1cc(-c2cccc(-c3cccc(-c4ccc(CO)c(OC)c4)c3C)c2C)ccc1CO | 6.32 | –
13 | Cc1c(NC(=O)c2ccc(CNCCO)nc2)cccc1-c1ccc2c(c1)OCCO2 | < 6.00 | –
14 | Cc1c(NC(=O)c2ccc(CNCCO)cn2)cccc1-c1ccc2c(c1)OCCO2 | 8.30 | –
15 | Cc1c(-c2ccc3c(c2)CCCN(CCO)C3)cccc1-c1ccc2c(c1)OCCO2 | – | IC50 [2]: Not Active
16 | Cc1c(Nc2cc(-c3ccc(CNCCO)cc3)ccn2)cccc1-c1ccc2c(c1)OCCO2 | < 6.00 | –
17 | Cc1c(-c2ccc3c(c2)OCCO3)cccc1N1CCN(c2cccc(CNCCO)n2)C1=O | < 6.00 | –
18 | COc1cc(-c2cccc(-c3cccc(-c4ccc(CNC(CO)C(=O)O)c(OC)c4)c3C)c2C)ccc1CNC(CO)C(=O)O (stereo not drawn) | 8.41 | pEC50 [3]: 6.11; Activity [4]: Non-Toxic; inhibition at 10 µM (hERG (KCNH2)): -0.67%; Activity [5]: Non-Toxic; Activity (L02): Non-Toxic; RLU [6]: 30600
19 | Cc1c(-c2ccc3c(c2)OCCO3)cccc1N1CCN(c2ccc(CNCCO)cc2)C1=O | < 6.00 | –
20 | Cc1c(-c2ccc3c(c2)OC(=O)N(CCO)C3)cccc1-c1ccc2c(c1)OCCO2 | – | IC50 [2]: Not Active
21 | O=C(c1ccc(CNCCO)cc1)n1ccc2c(-c3ccc4c(c3)OCCO4)cccc21 | < 6.00 | –
22 | COc1cc(-c2cccc(-c3cccc(-c4ccc(CNCC5CCC(=O)N5)c(OC)c4)c3C)c2C)ccc1CNCC1CCC(=O)N1 (stereo not drawn) | 6.86 | –

Row | Compound | pIC50 [1] | other results
23 | Cc1c(-c2ccc3c(c2)OCCO3)cccc1N(C)C(=O)c1ccc(CNCCO)cn1 | 6.12 | –
24 | Cc1c(-c2ccc3c(c2)OCCO3)cccc1N1CCN(c2cccc(CNCCO)c2)C1=O | < 6.00 | –
25 | Cc1c(-c2ccc(CNCCO)cn2)cccc1-c1cccc(-c2ccc(CNCCO)cn2)c1C | < 6.00 | –
26 | Cc1c(NS(=O)(=O)c2ccc(CNCCO)cc2)cccc1-c1ccc2c(c1)OCCO2 | < 6.00 | –
27 | Cc1c(-c2ccc(CNCCO)cc2)cccc1-c1ccc2c(c1)OCCO2 | 7.79 | inhibition at 10 µM (hERG (KCNH2)): 98%
28 | Cc1c(NC(=O)c2ccc(CNCCO)cc2)cccc1-c1ccc2c(c1)OCCO2 | < 6.00 | –
29 | COc1cc(-c2cccc(-c3ccc4c(c3)OCCO4)c2C)ccc1CNCCO | – | IC50 [2]: Not Active; inhibition at 10 µM (hERG (KCNH2)): 4.71%
30 | Cc1c(Nc2cccc(-c3ccc(CNCCO)cc3)n2)cccc1-c1ccc2c(c1)OCCO2 | < 6.00 | –
31 | COc1cc(-c2cccc(-c3cccc(-c4ccc(CNC5CCOCC5)c(OC)c4)c3C)c2C)ccc1CNC1CCOCC1 | 7.46 | –
32 | O=C(c1ccc(CNCCO)cc1)n1ccc2c(-c3cccc4c3ccn4C(=O)c3ccc(CNCCO)cc3)cccc21 | 6.51 | –
33 | O=C(c1ccc(CNCCO)cc1)N1CCc2c(-c3cccc4c3CCN4C(=O)c3ccc(CNCCO)cc3)cccc21 | 7.73 | –
34 | Cc1c(NC(c2ccc(CNCCO)cc2)C(F)(F)F)cccc1-c1ccc2c(c1)OCCO2 (stereo not drawn) | < 6.00 | –
35 | COc1cc(-c2cccc(-c3cccc(-c4ccc(CNC(CO)CO)c(OC)c4)c3C)c2C)ccc1CO | 7.31 | –
36 | O=C(c1ccc(CNCCO)cc1)N1CCc2c(-c3ccc4c(c3)OCCO4)cccc21 | 6.82 | –
37 | COc1cc(-c2cccc(-c3cccc(-c4ccc(CN5CC(C(=O)O)C5)c(OC)c4)c3C)c2C)ccc1CN1CC(C(=O)O)C1 | 8.37 | pEC50 [3]: 6.98; Activity [4]: Non-Toxic; inhibition at 10 µM (hERG (KCNH2)): 3.93%; Activity [5]: Non-Toxic; Activity (L02): Non-Toxic; RLU [6]: 35800
38 | Cc1c(-c2ccc3c(c2)OCCO3)cccc1-c1ccc(CNCCO)s1 | – | IC50 [2]: Not Active
39 | Cc1c(-c2ccc(CNCCO)cc2)cccc1-c1cccc(-c2ccc(CNCCO)cc2)c1C | 7.34 | –
40 | Cc1c(-c2ccc3c(c2)OCCO3)cccc1-c1ccc(CNCCO)cn1 | 7.71 | –
41 | COc1cc(-c2cccc(-c3cccc(-c4ccc(CNCCO)c(OC)c4)c3C)c2C)ccc1CNCCO | 7.31 | –
42 | COc1cc(-c2cccc(-c3cccc(-c4ccc(CN5CCCCC5C(=O)O)c(OC)c4)c3C)c2C)ccc1CO (stereo not drawn) | 6.33 | –
43 | COc1cc(-c2cccc(-c3cccc(-c4ccc(CNC5CCCC5O)c(OC)c4)c3C)c2C)ccc1CNC1CCCC1O (stereo not drawn) | 7.44 | –
